Laboratory results: paper PMC9882606, “Rationally designed inhibitors of the Musashi protein-RNA interaction by hotspot mimicry” (Research Square, 2023)

Legend:
MSI1 RRM1 = biological target: T1, MSI1 RRM1 (Homo sapiens, UniProt O43347); test: Fluorescence polarization (FP) competition assay with fluorescein-labeled RNA; type: binding; details: MSI1 RRM1
T1 sequence (O43347 20-110 limits assumed): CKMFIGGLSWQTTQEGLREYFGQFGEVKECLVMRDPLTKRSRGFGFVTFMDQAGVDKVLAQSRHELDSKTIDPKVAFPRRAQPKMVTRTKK
From the text: Figure 1: The hotspot mimicry approach. […] (A) The structure of the MSI1 / RNA complex. The RNA (sticks) wraps around the protein (spheres). Two adjacent bases, A106 and G107 (magenta), are buried in a shallow pocket on the protein surface. (B) An interaction map is generated from the RNA in the complex, by collecting deeply buried bases (magenta) and atoms involved in intermolecular hydrogen bonds (acceptors shown in yellow, donors in green). […] Positive values indicate diminished binding when a given base is replaced with an abasic site, showing that A106 and G107 contribute more than the other nearby bases to the binding affinity of this interaction. (E) The hotspot pharmacophore serves as a template for ligand-based screening, searching for compounds that would mimic the three-dimensional features of the pharmacophore. The screen led to the identification of compound R12, which mimics the geometry of the rings and provides three of the four desired hydrogen bonding groups. (F) R12 competes with fluorescein-labeled RNA for MSI1 binding, as observed through a fluorescence polarization assay. […] (G) Superposition of the hotspot pharmacophore back onto the protein structure illustrates the interactions that should be captured by an ideal ligand: stacking against three aromatic sidechains, and four intermolecular hydrogen bonds.
We applied our “hotspot mimicry” approach to the structure of Musashi-1 RRM1 bound to cognate RNA [54], and found a single hotspot pharmacophore derived from an adjacent pair of buried bases, Adenine106 and Guanine107 (Figure 1a). […] This pharmacophore captures both the aromatic stacking and the hydrogen bonding of the RNA hotspot through its inclusion of ring moieties and donor/acceptor positions, respectively (Figure 1c). To test whether these two particular bases indeed serve as a hotspot of the MSI1 RRM1 / RNA interaction, we used a fluorescence polarization (FP) competition assay (see Supporting Methods) to measure the binding affinity of RNA variants that maintained the backbone but lacked individual bases. […] In contrast, introduction of an abasic site at other nearby positions affected binding much less. Confirmation that A106 and G107 serve as hotspot bases of this interaction thus provided experimental evidence supporting the pharmacophore selection from our computational approach.

PC9 cells = test: CellTiter-Blue, combination with osimertinib, PC9; type: cell-based, human; details: PC9, 3-day treatment, osimertinib with 10 μM compound vs osimertinib alone
From the text: With respect to non-small cell lung cancer (NSCLC) specifically, overexpression of MSI2 has been identified as a mechanism underlying resistance to inhibitors of EGFR – and more importantly, depletion of MSI2 by RNA knockdown increased sensitivity to the third-generation EGFR inhibitor osimertinib both in vitro and in vivo [73, 74]. Despite lack of sensitivity to R12–8–44–3 alone, we therefore hypothesized that R12–8–44–3 would sensitize PC9 cells (an EGFR-mutant lung cancer cell line) to osimertinib.

hnRNP A1 RRM1 domain = biological target: T2, hnRNP A1 RRM1 domain (Homo sapiens, UniProt P09651); test: FP competition assay with the same fluorescently-labeled RNA; type: binding
T2 construct: we expressed and purified hnRNP A1’s RRM1 domain; made in house

MSI2 = MSI2 (Homo sapiens, UniProt Q96DH6); test: MS2-TRAP aptamer pull-down reporter assay in HEK293 cells; type: cell-based; parameters: HEK293 cells (with a high baseline MSI2 expression); endogenous in cells; host or cells: HEK293; details: HEK293, 24 h treatment
From the text: Figure 5: Characterization of R12–8–44–3 in a reporter cell line. […] As a positive control, Ro 08–2750 (aka “Ro”) is also included in these studies. (B) Schematic of reporter assay. HEK293 cells are transfected with a plasmid encoding an arbitrary gene (Luc) with UAG repeats (to recruit MSI2) and MS2 repeats (for pulldown) appended to its 3’ UTR. The same vector also includes FLAG-labeled MS2-BP. Upon anti-FLAG immunoprecipitation (IP), the FLAG-labeled MS2-BP allows purification of the Luc mRNA along with any associated factors. (C) Prior to IP, cells express Luc mRNA to a similar extent irrespective of whether they were treated with DMSO, R12-neg, R12–8–44–3, or Ro. (D) Prior to IP (“input”), MSI2 is detected in all samples to a similar extent (as is KU-86 loading control). After pulldown of Luc mRNA, MSI2 is found associated with the mRNA in cells treated with DMSO or R12-neg, but not in cells that had been treated with R12–8–44–3 or Ro. Representative image is shown; quantification is plotted as the average of 2 independent experiments ± S.E.M. Statistical analysis was performed using unpaired two tailed t-test, with * indicating p<0.05. Uncropped Western blots from this experiment are provided as Figure S8.
To determine whether inhibition of MSI1/MSI2 by R12–8–44–3 would apply in a cellular context, we adapted an aptamer pull-down reporter assay that we previously used to validate candidate Musashi target genes. Briefly, our approach is a variation of the MS2-TRAP (MS2-tagged RNA affinity purification) method, which uses bacteriophage protein MS2-BP to extract from cells any factors that associate with RNAs containing a specific stem-loop structure (MS2) from the phage genome. Here, we designed an mRNA construct that would include a series of MS2 hairpins and also a MSI2 recognition sequence. We transfected this construct into cells that also express FLAG-tagged MS2-BP (a protein unrelated to MSI2). By affinity purification using the FLAG tag, proteins bound to the designed mRNA can be extracted from cells.
To test for inhibition of MSI2 in cells, we transfected HEK293 cells (with a high baseline MSI2 expression), with the pMS2-LUC-3’UTR from our previous studies. This vector appends onto the 3’UTR of an arbitrary gene (in this case luciferase) two key elements: UAG-motifs comprising a MSI2 recognition sequence, and a series of five MS2 hairpins. The same vector also encodes the FLAG-MS2-BP fusion needed for affinity purification (Figure 5b). Cells were then treated with each compound of interest for 24 h, and then the cells were subsequently harvested and used for anti-FLAG immunoprecipitation. […] Using qPCR we evaluated the amount of Luc mRNA in cells treated with R12–8–44–3, R12-neg, or Ro, and found this to be unchanged (Figure 5c).

Sequence of MSI2 (Q96DH6 whole entry): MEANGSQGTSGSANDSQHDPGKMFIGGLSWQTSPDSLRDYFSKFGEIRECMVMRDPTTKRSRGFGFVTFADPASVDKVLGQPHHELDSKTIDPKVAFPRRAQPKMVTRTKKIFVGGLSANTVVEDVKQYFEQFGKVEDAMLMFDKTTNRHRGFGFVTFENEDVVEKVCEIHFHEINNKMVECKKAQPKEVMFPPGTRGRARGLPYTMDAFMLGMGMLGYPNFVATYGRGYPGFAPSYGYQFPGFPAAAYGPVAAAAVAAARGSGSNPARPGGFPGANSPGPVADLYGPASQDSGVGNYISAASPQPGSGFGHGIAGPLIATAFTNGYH
T2 sequence (P09651 14-97 limits assumed): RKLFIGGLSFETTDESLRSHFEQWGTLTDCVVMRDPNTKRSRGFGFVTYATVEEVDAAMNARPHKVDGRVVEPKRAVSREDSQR

In the case of `Cc1cc(C(=O)OCc2nc(N)c3c(C)c(C)sc3n2)c(N)cc1F` [R12–8–44–3], the “improvement in potency over parent compound” value (MSI1 RRM1; FP assay) is reported as 2 fold, the IC50 (MSI1 RRM1; FP competition) is reported as 9.7 µM and the “cell viability (CellTiter-Blue) in combination with osimertinib” value (PC9 cells) is reported as “small but statistically significant decrease in cell viability”. For the same compound, the “inhibition of hnRNP A1 RNA binding” value (hnRNP A1 RRM1 domain) was “does not inhibit”, the “MSI2 purified with reporter mRNA (anti-FLAG pulldown)” value (MSI2) was “much less MSI2 is purified” and the “total amount of MSI2 in cells” value (MSI2; input prior to IP) was “unaffected”. The “amount of Luc mRNA in cells (qPCR)” value (MSI2; prior to IP) was “unchanged”.
